# According to patent US11590129B2, “Combination therapy with an antitumor alkaloid” (PHARMA MAR, S.A., priority 2010, dated 2023):
# Legend:
# HGC-27 tumors = test: Human gastric tumor xenografts (HGC-27) in athymic nude mice, tumor volume % T/C; format: in vivo
# Description: Female athymic nude mice (Harlan Laboratories Models, S.L. (Barcelona, Spain) were utilized for all experiments. Animals were housed in individually ventilated cages, up to ten per cage in a 12-hour light-dark cycle at 21-23° C. and 40-60% humidity. The mice were allowed free access to irradiated standard rodent diet and sterilized water. Animals were acclimated for at least 5 days prior to tumor implantation with a tumor cell suspension.
# HGC-27 cells were grown at 37° C. with 5% CO2 in Iscove's modified Dulbeco's medium (IDMD).
# PM01183 was provided in the form of vials of lyophilized PM01183 cake which was reconstituted with water for infusion to a concentration of 0.2 mg/mL. The PM01183 stock solution was further diluted in 5% glucose solution for injection to the dosing formulation concentrations. Cisplatin and 5-fluorouracil were provided as solutions prepared by diluting the product with 0.9% saline solution for injection to the target final concentration.
# Dose level groups were administered either as single agents or in combination.
# Comparison of the median tumor volume in the treatment groups (T) to the median tumor volume in the control group (T/C×100%) was used for evaluation of the antitumor efficacy.
# [1] = tested on: HT-29 human colon adenocarcinoma cell line; test: cells; settings: Homo sapiens, HT-29, 72 h
# Outline: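 HT-29 cells (5,000/well) were attached for 24 h, then exposed to vehicle or compounds for 72 h. Viability was read by MTT reduction, with 8 h MTT at 37° C and formazan dissolved in DMSO. Values are % of control cell growth.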
# [2] = tested on: MDA-MB-231 human breast adenocarcinoma cell line; test: cells; settings: Homo sapiens, MDA-MB-231, 72 h
# [3] = tested on: RXF-393 human kidney carcinoma cell line; test: cells; settings: Homo sapiens, RXF 393, 72 h
# [4] = tested on: U87-MG human glioblastoma cell line; test: cells; settings: Homo sapiens, U-87 MG, 72 h
# [5] = tested on: HepG2 human hepatocellular liver carcinoma cell line; test: MTT cytotoxicity assay in HepG2 cells: IC50 of single agents and combinations with PM01183; format: cell-based; settings: Homo sapiens, HepG2, 72 h
# [6] = PM01183 0.045 mg/kg iv days 0,7, 5-fluorouracil study
# [7] = PM01183 0.045 mg/kg iv days 0,7, cisplatin study
# [8] = PM01183 0.09 mg/kg iv days 0,7, 5-fluorouracil study
# [9] = PM01183 0.09 mg/kg iv days 0,7, cisplatin study
# [10] = PM01183 0.135 mg/kg iv days 0,7, 5-fluorouracil study
# [11] = PM01183 0.135 mg/kg iv days 0,7, cisplatin study
# [12] = PM01183 0.18 mg/kg iv days 0,7, 5-fluorouracil study
# [13] = PM01183 0.18 mg/kg iv days 0,7, cisplatin study
smiles,measurement,setting,value
COc1ccc2[nH]c3c(c2c1)CCN[C@]31CS[C@@H]2c3c(OC(C)=O)c(C)c4c(c3[C@H](COC1=O)N1[C@@H]2[C@H]2c3c(cc(C)c(OC)c3O)C[C@@H]([C@@H]1O)N2C)OCO4 [PM01183],% T/C on day 0,HGC-27 tumors; [6],99.9%
same,% T/C on day 2,HGC-27 tumors; [6],84.3%
same,% T/C on day 5,HGC-27 tumors; [6],103.2%
same,% T/C on day 7,HGC-27 tumors; [6],104.6%
same,% T/C on day 9,HGC-27 tumors; [6],103.5%
same,% T/C on day 12,HGC-27 tumors; [6],101.6%
same,% T/C on day 14,HGC-27 tumors; [6],85.0%
same,% T/C on day 0,HGC-27 tumors; [7],98.9%
same,% T/C on day 3,HGC-27 tumors; [7],85.9%
same,% T/C on day 5,HGC-27 tumors; [7],83.1%
same,% T/C on day 7,HGC-27 tumors; [7],92.1%
same,% T/C on day 10,HGC-27 tumors; [7],76.4%
same,% T/C on day 12,HGC-27 tumors; [7],81.6%
same,% T/C on day 14,HGC-27 tumors; [7],88.5%
same,% T/C on day 0,HGC-27 tumors; [8],100.6%
same,% T/C on day 2,HGC-27 tumors; [8],90.5%
same,% T/C on day 5,HGC-27 tumors; [8],87.6%
same,% T/C on day 7,HGC-27 tumors; [8],83.4%
same,% T/C on day 9,HGC-27 tumors; [8],82.6%
same,% T/C on day 12,HGC-27 tumors; [8],76.7%
same,% T/C on day 14,HGC-27 tumors; [8],67.7%
same,% T/C on day 0,HGC-27 tumors; [9],98.6%
same,% T/C on day 3,HGC-27 tumors; [9],67.5%
same,% T/C on day 5,HGC-27 tumors; [9],67.9%
same,% T/C on day 7,HGC-27 tumors; [9],66.1%
same,% T/C on day 10,HGC-27 tumors; [9],70.2%
same,% T/C on day 12,HGC-27 tumors; [9],60.3%
same,% T/C on day 14,HGC-27 tumors; [9],65.0%
same,% T/C on day 0,HGC-27 tumors; [10],100.2%
same,% T/C on day 2,HGC-27 tumors; [10],81.5%
same,% T/C on day 5,HGC-27 tumors; [10],58.7%
same,% T/C on day 7,HGC-27 tumors; [10],61.4%
same,% T/C on day 9,HGC-27 tumors; [10],60.2%
same,% T/C on day 12,HGC-27 tumors; [10],54.6%
same,% T/C on day 14,HGC-27 tumors; [10],55.1%
same,% T/C on day 0,HGC-27 tumors; [11],97.9%
same,% T/C on day 3,HGC-27 tumors; [11],71.6%
same,% T/C on day 5,HGC-27 tumors; [11],59.9%
same,% T/C on day 7,HGC-27 tumors; [11],47.8%
same,% T/C on day 10,HGC-27 tumors; [11],39.3%
same,% T/C on day 12,HGC-27 tumors; [11],37.1%
same,% T/C on day 14,HGC-27 tumors; [11],38.3%
same,% T/C on day 0,HGC-27 tumors; [12],99.6%
same,% T/C on day 2,HGC-27 tumors; [12],78.6%
same,% T/C on day 5,HGC-27 tumors; [12],50.9%
same,% T/C on day 7,HGC-27 tumors; [12],43.3%
same,% T/C on day 9,HGC-27 tumors; [12],41.0%
same,% T/C on day 12,HGC-27 tumors; [12],33.0%
same,% T/C on day 14,HGC-27 tumors; [12],29.2%
same,% T/C on day 0,HGC-27 tumors; [13],99.6%
same,% T/C on day 3,HGC-27 tumors; [13],65.9%
same,% T/C on day 5,HGC-27 tumors; [13],55.6%
same,% T/C on day 7,HGC-27 tumors; [13],38.7%
same,% T/C on day 10,HGC-27 tumors; [13],33.5%
same,% T/C on day 12,HGC-27 tumors; [13],24.3%
same,% T/C on day 14,HGC-27 tumors; [13],24.3%
same,IC50,[1],3.7 nM
same,IC50,[2],3.5 nM
same,IC50,[3],5 nM
same,IC50,[4],4.5 nM
same,IC50,[5],2.5 nM
